In PubChem BioAssay (NCI):
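Values below derive from 48-hour exposures of cells grown in 96-well plates, with endpoints linearly interpolated between the two concentrations bracketing the appropriate inhibition level. Definition used: TGI = concentration required for complete inhibition of growth.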

What was measured:
Experiment in all cases: growth of human tumour cells (NCI), 48 h
U251 CNS = tested on: U251 CNS
ACHN renal = tested on: ACHN renal
SK-MEL-28 melanoma = tested on: SK-MEL-28 melanoma
SNB-75 CNS = tested on: SNB-75 CNS
OVCAR-3 ovarian = tested on: OVCAR-3 ovarian
SN12C renal = tested on: SN12C renal
K-562 leukemia = tested on: K-562 leukemia
SF-295 CNS = tested on: SF-295 CNS
SF-268 CNS = tested on: SF-268 CNS
HOP-62 NSCLC = tested on: HOP-62 NSCLC
MDA-N = tested on: MDA-N
LOX IMVI melanoma = tested on: LOX IMVI melanoma
UACC-257 melanoma = tested on: UACC-257 melanoma
A549 NSCLC = tested on: A549 NSCLC
NCI-H226 lung = tested on: NCI-H226 lung
MCF7 breast = tested on: MCF7 breast
MALME-3M melanoma = tested on: MALME-3M melanoma
OVCAR-4 ovarian = tested on: OVCAR-4 ovarian
HOP-92 NSCLC = tested on: HOP-92 NSCLC
MOLT-4 leukemia = tested on: MOLT-4 leukemia
BT-549 breast = tested on: BT-549 breast
SK-OV-3 ovarian = tested on: SK-OV-3 ovarian
OVCAR-5 ovarian = tested on: OVCAR-5 ovarian
PC-3 prostate = tested on: PC-3 prostate
NCI-H460 lung = tested on: NCI-H460 lung
KM12 colon = tested on: KM12 colon
MDA-MB-231 breast = tested on: MDA-MB-231 breast
A498 renal = tested on: A498 renal
M14 melanoma = tested on: M14 melanoma
HCT-15 colon = tested on: HCT-15 colon
SR leukemia = tested on: SR leukemia
CCRF-CEM leukemia = tested on: CCRF-CEM leukemia
NCI-H522 lung = tested on: NCI-H522 lung
786-0 renal = tested on: 786-0 renal
OVCAR-8 ovarian = tested on: OVCAR-8 ovarian
RXF 393 renal = tested on: RXF 393 renal
MDA-MB-435 = tested on: MDA-MB-435
RPMI-8226 leukemia = tested on: RPMI-8226 leukemia
UACC-62 melanoma = tested on: UACC-62 melanoma
HL-60(TB) leukemia = tested on: HL-60(TB) leukemia
SF-539 CNS = tested on: SF-539 CNS
DU-145 prostate = tested on: DU-145 prostate
TK-10 renal = tested on: TK-10 renal
EKVX NSCLC = tested on: EKVX NSCLC
NCI/ADR-RES ovarian = tested on: NCI/ADR-RES ovarian
NCI-H23 lung = tested on: NCI-H23 lung
SW-620 colon = tested on: SW-620 colon
IGROV1 ovarian = tested on: IGROV1 ovarian
CAKI-1 renal = tested on: CAKI-1 renal
HCT-116 colon = tested on: HCT-116 colon
HS 578T breast = tested on: HS 578T breast
SK-MEL-5 melanoma = tested on: SK-MEL-5 melanoma
UO-31 renal = tested on: UO-31 renal
SK-MEL-2 melanoma = tested on: SK-MEL-2 melanoma
COLO 205 colon = tested on: COLO 205 colon
T-47D breast = tested on: T-47D breast
SNB-19 CNS = tested on: SNB-19 CNS
HT29 colon = tested on: HT29 colon

SMILES: Cc1c(CCCl)c(N=[N+]=[N-])n2c(nc3ccccc32)c1C#N
- TGI (U251 CNS): 6.02 µM
- TGI (ACHN renal): 2.85 µM
- TGI (SK-MEL-28 melanoma): 3.27 µM
- TGI (SNB-75 CNS): 2.87 µM
- TGI (OVCAR-3 ovarian): 3.15 µM
- TGI (SN12C renal): 3.13 µM
- TGI (K-562 leukemia): 1.48 µM
- TGI (SF-295 CNS): 3.54 µM
- TGI (SF-268 CNS): 5.67 µM
- TGI (HOP-62 NSCLC): 5.01 µM
- TGI (MDA-N): 3.12 µM
- TGI (LOX IMVI melanoma): 2.37 µM
- TGI (UACC-257 melanoma): 3.53 µM
- TGI (A549 NSCLC): 5.95 µM
- TGI (NCI-H226 lung): 4.29 µM
- TGI (MCF7 breast): 2.14 µM
- TGI (MALME-3M melanoma): 2.9 µM
- TGI (OVCAR-4 ovarian): 3.54 µM
- TGI (HOP-92 NSCLC): 2.61 µM
- TGI (MOLT-4 leukemia): 1.12 µM
- TGI (BT-549 breast): 2.1 µM
- TGI (SK-OV-3 ovarian): 5.07 µM
- TGI (OVCAR-5 ovarian): 4.73 µM
- TGI (PC-3 prostate): 2.72 µM
- TGI (NCI-H460 lung): 3.32 µM
- TGI (KM12 colon): 3.27 µM
- TGI (MDA-MB-231 breast): 3.16 µM
- TGI (A498 renal): 3.85 µM
- TGI (M14 melanoma): 2.77 µM
- TGI (HCT-15 colon): 2.72 µM
- TGI (SR leukemia): 1.08 µM
- TGI (CCRF-CEM leukemia): 0.987 µM
- TGI (NCI-H522 lung): 0.44 µM
- TGI (786-0 renal): 1.63 µM
- TGI (OVCAR-8 ovarian): 5.21 µM
- TGI (RXF 393 renal): 2.85 µM
- TGI (MDA-MB-435): 2.73 µM
- TGI (RPMI-8226 leukemia): 2.33 µM
- TGI (UACC-62 melanoma): 3.12 µM
- TGI (HL-60(TB) leukemia): 2.6 µM
- TGI (SF-539 CNS): 3.5 µM
- TGI (DU-145 prostate): 6.3 µM
- TGI (TK-10 renal): 3.02 µM
- TGI (EKVX NSCLC): 4.4 µM
- TGI (NCI/ADR-RES ovarian): 5.53 µM
- TGI (NCI-H23 lung): 2.95 µM
- TGI (SW-620 colon): 1.21 µM
- TGI (IGROV1 ovarian): 1.64 µM
- TGI (CAKI-1 renal): 3 µM
- TGI (HCT-116 colon): 1.55 µM
- TGI (HS 578T breast): 2.43 µM
- TGI (SK-MEL-5 melanoma): 1.35 µM
- TGI (UO-31 renal): 3.32 µM
- TGI (SK-MEL-2 melanoma): 3.48 µM
- TGI (COLO 205 colon): 2.66 µM
- TGI (T-47D breast): 3.18 µM
- TGI (SNB-19 CNS): 8.37 µM
- TGI (HT29 colon): 4.52 µM

SMILES: CCOC(=O)c1cc2c([nH]1)C(=O)CC1=C2CCN1Cc1ccccc1
- TGI (U251 CNS): 25.4 µM
- TGI (ACHN renal): 25.6 µM
- TGI (SK-MEL-28 melanoma): 32.7 µM
- TGI (SNB-75 CNS): 46.2 µM
- TGI (SN12C renal): 35.3 µM
- TGI (K-562 leukemia): 25.9 µM
- TGI (SF-295 CNS): 34.2 µM
- TGI (SF-268 CNS): 43.6 µM
- TGI (MDA-N): 26.8 µM
- TGI (LOX IMVI melanoma): 29.1 µM
- TGI (UACC-257 melanoma): 36.1 µM
- TGI (A549 NSCLC): 73.5 µM
- TGI (NCI-H226 lung): 32.3 µM
- TGI (MCF7 breast): 32.3 µM
- TGI (MALME-3M melanoma): 13.2 µM
- TGI (OVCAR-4 ovarian): 26.8 µM
- TGI (HOP-92 NSCLC): 28.3 µM
- TGI (MOLT-4 leukemia): 17 µM
- TGI (BT-549 breast): 38.3 µM
- TGI (SK-OV-3 ovarian): 37.1 µM
- TGI (PC-3 prostate): 47.2 µM
- TGI (NCI-H460 lung): 39.2 µM
- TGI (KM12 colon): 33.2 µM
- TGI (MDA-MB-231 breast): 28.8 µM
- TGI (A498 renal): 29 µM
- TGI (HCT-15 colon): 21.6 µM
- TGI (SR leukemia): 33.4 µM
- TGI (CCRF-CEM leukemia): 28.6 µM
- TGI (NCI-H522 lung): 38.5 µM
- TGI (786-0 renal): 31 µM
- TGI (OVCAR-8 ovarian): 46.6 µM
- TGI (RXF 393 renal): 30.5 µM
- TGI (MDA-MB-435): 27.6 µM
- TGI (RPMI-8226 leukemia): 16.6 µM
- TGI (UACC-62 melanoma): 28.4 µM
- TGI (HL-60(TB) leukemia): 54.1 µM
- TGI (SF-539 CNS): 39.4 µM
- TGI (DU-145 prostate): 28.6 µM
- TGI (TK-10 renal): 30 µM
- TGI (EKVX NSCLC): 37.4 µM
- TGI (NCI/ADR-RES ovarian): 43.5 µM
- TGI (NCI-H23 lung): 29.6 µM
- TGI (SW-620 colon): 23.3 µM
- TGI (IGROV1 ovarian): 36 µM
- TGI (CAKI-1 renal): 15 µM
- TGI (HCT-116 colon): 25.8 µM
- TGI (HS 578T breast): 57.4 µM
- TGI (UO-31 renal): 29.5 µM
- TGI (SK-MEL-2 melanoma): 42.5 µM
- TGI (COLO 205 colon): 31.8 µM
- TGI (T-47D breast): 6.77 µM
- TGI (SNB-19 CNS): 31.8 µM
- TGI (HT29 colon): 30.8 µM
